Laboratory results from patent publication US6528049B2, “Bisexual attractants, aggregants and arrestants for adults and larvae of codling moth and other species of lepidoptera” (Trece, Inc., priority 1999, dated 2003).

Key:
Assay type in all cases: in vivo, Cydia pomonella
codling moth [1] = assay: Trap capture in a pheromone mating disruption treated walnut orchard; details: 10 mg/lure, FIG. 6
Description: FIG. 6 illustrates total capture of codling moth males and females, in a mating disruption treated orchard by using pheromone lures (-▴-) and by using lures containing ethyl (2E,4Z)-2,4-decadienoate (-♦-) (10 mg/lure)

codling moth [2] = assay: Low loading dose response trap study (FIG. 13); details: loading doses 0.1 μg to 10 mg in grey septa
Description: In this study, both males (-Δ-) and females (-□-) responded to a threshold dose of less than 10 μg of the ester attractant, while at progressively higher loading rates females were more responsive than males.

[3] = test system: first-instar or neonate larval worms of the codling moth; assay: Dual-choice larval orientation bioassay in petri dishes
Description: Behavioral orientation responses in the laboratory of first-instar or neonate larval worms of the codling moth are seen in Table 16. Data shown in Table 16 represents means of to 50 bioassay replications using five neonates per experiment conducted in small areas (10 cm diameter petri dishes). Experiments were dual-choice tests, where the released neonate larvae crawled and made perceptual choices between two small (one cm diameter) filter paper discs, with one disk treated with 1 ug or 10 ug of ethyl (2E,4Z) decadienoate and the other disc treated with an equivalent volume of solvent (methylene chloride).

codling moths = assay: Effect of sample purity on trap capture
Description: Additional purification procedures were conducted to show the differences and superiority of purified pear and apple volatiles over commercially available products. For that purpose, extracts were purified from commercially available compounds, typically available in only about 80-85% purity, to a purity between 90-100%, preferably over 98% purity. As the purity of the sample of ethyl (2E,4Z)-2,4-decadienoate increased so also did its attractancy to codling moths. For example, the mean captures (±SEM) were 4.5 (±2.0) for an 86% pure sample, 6.5 (±4.4) for a 93.6% pure sample and 9.3 (±3.2) for 98.8% pure sample.

codling moth [4] = assay: Field study of individual alcohols, aldehydes and esters; details: individual compounds typically of purity 90-98%
Description: Attractive activity of these compounds for male and female codling moth was compared to purified ethyl (2E,4Z)-2,4-decadienoate.
When the cumulative evaluation of all studied compounds and/or blends containing aldehyde, alcohol, ester and terpene compounds was made, the following results clearly confirmed the findings seen in Table 3.

codling moth [5] = assay: Sticky traps baited with the single compound or pheromone
Description: FIG. 5 illustrates mean attraction of female and male codling moths to sticky traps baited with a single host plant volatile, ethyl (2E,4Z)-2,4-decadienoate. The attraction was followed over a two month period.

codling moth [6] = assay: Inherent attractancy field test of HPV blends in baited sticky traps in walnut orchard; details: walnut orchard, blends 10 mg/white septa, ethyl (2E,4Z)-2,4-decadienoate 5 mg
Description: The blends listed in Table 2 were then field tested in walnut orchards for their attractancy to male and female codling moths, and also for enhancement with synthetic codling moth pheromone and other additives identified above. Their total capture (both males and females), and their individual male and female capture were determined and results obtained, were compared to insect capture obtained with purified individual ester, compound #25 namely ethyl (2E,4Z)-2,4-decadienoate, and to the codling moth male sex pheromone compound #26 in Table 3.
Individual blends containing representative aldehyde, alcohol, ester, monoterpene or sesquiterpene blends were provided in the traps in 10 mg/white septa.
Individual host-plant volatile (HPV) blends identified by the #1-23 in Table 3 were tested for codling moth attractancy in a walnut orchard, and the results were compared to the isolated purified ethyl (2E,4Z)-2,4-decadienoate (#25), to pheromone (#26) and to solvent controls (#24).
Twenty-five HPV blends and eight individual compounds were field tested. One synthetic blend, “ester blend #10,” elicited excellent codling moth attraction. In field tests, the other tested blends (see Table 3) and compounds captured no moths over a three month period, except for an “apple-skin surface extract” (Golden Delicious, ether solvent) (Σ=3 codling moth captured, 1♂: 2♀♀) and the individual compound, (E,E)-α-farnesene (Σ=1♂ codling moth captured). The field tests are presented in Table 3 and show attraction specificity for HPV ester blend #10.
Sticky traps (ICP and IIB traps, Trécé, Inc. Salinas, Calif.) were baited with either extracts, blends of HPVs, or individual HPVs (>95% purity) that evaporated from impregnated rubber septa. HPV blends, or individual HPV compounds, were diluted in hexane and pipetted onto rubber septa at approximate doses of 10 mg/septum. A single treatment septum was placed in each sticky wing-trap, and hung approximately six meters high in the outer walnut canopy. Trap liners and treatment HPV septa were replaced every 10-14 days and pheromone septa every month and tests were conducted throughout two summers.
A replicated series of different HPV treatment traps, control “blank” (unbaited) trap, and a commercial pheromone-baited trap (Trécé, Inc.) were distributed 5 trees apart throughout two distant Hartley walnut orchards and validated in 12 walnut orchards. The orchards were distinct, with one using three summer insecticide sprays and the other had no spraying. Thus, these test orchards had low vs. moderate relative populations of codling moths. Significant effects on the gender of codling moths captured were judged by paired tests, either T-test or a nonparametric test.

codling moth [7] = assay: Trap capture with proportional mixes of ethyl 2,4-decadienoate isomers; details: 1 mg dose/gray septum
Description: Additionally, studies were performed to determine the attraction of codling moth to proportional mixes of (2E,4Z) and (2E,4E) isomers of ethyl 2,4-decadienoate and highly purified samples of each. Traps were baited with 1 mg dose/gray septum.

[8] = five neonates per experiment, disc with 1 ug or 10 ug vs solvent disc
[9] = Table 15, sticky trap, 3 traps, 43 trap checks (pheromone: 1 trap, 19 trap checks)

CCCCC/C=C\C=C\C(=O)OCC [Ethyl (2E,4Z)-2,4-Decadienoate, ethyl (2E,4Z)-2,4-decadienoate]
number of codling moths captured relative to lures with pheromone only (codling moth [1]): more than double
threshold dose to which males and females responded (codling moth [2]): less than 10 μg
Arrestment; average time (sec) on or under disc: ([3]; 1 ug dose of attractant): 19.7 ± 5.6 s
Arrestment; average time (sec) on or under disc: ([3]; 10 ug dose of attractant): 33.0 ± 10.7 s
Attraction; average number of neonates contacting disc: x ± SEM [3, 8]: 4.5 ± 0.9
Latency: average time (sec) to first arrive at disc: x ± SEM [3, 8]: 74.5 ± 16.1 s
mean captures (±SEM) (codling moths; 86% pure sample): 4.5 (±2.0)
mean captures (±SEM) (codling moths; 93.6% pure sample): 6.5 (±4.4)
mean captures (±SEM) (codling moths; 98.8% pure sample): 9.3 (±3.2)
attractancy to male and female codling moth (in words) (codling moth [4]): most active
Female Capture: Sum: (codling moth [5]; Table 15, sticky trap): 76.4 Moths/Trap/Night
Male Capture: Sum: (codling moth [5]; Table 15, sticky trap): 24.9 Moths/Trap/Night
Female Capture: Mean ± SEM (codling moth [5]; [9]): 1.78 ± 0.45 Moths/Trap/Night
Male Capture: Mean ± SEM (codling moth [5]; [9]): 0.58 ± 0.12 Moths/Trap/Night
attractiveness relative to pheromone (codling moth [5]; sticky traps, two month period): approximately 48%
FEMALE CM Captured with HPV; ♀♀/trap night ± SEM (codling moth [6]): 2.04 ± 0.85 ♀♀/trap night
MALE CM Captured with HPV; ♂♂/trap/night ± SEM (codling moth [6]): 1.42 ± 0.59 ♂♂/trap/night
Total CM Captured with HPV: (CM/trap/night ± SEM) (codling moth [6]): 3.46 ± 1.44 CM/trap/night
Total CM Captured with HPV: (CM/trap/night ± SEM) (codling moth [6]; listed as #25): 3.46 CM/trap/night
Female CM Captured ♀♀/trap/night ± SEM (codling moth [7]): 0.76 ± 0.10 ♀♀/trap/night
MALE CM Captured: ♂♂/trap/night ± SEM (codling moth [7]): 0.62 ± 0.29 ♂♂/trap/night
Total CM Captured: CM/trap ± SEM (codling moth [7]): 1.38 ± 0.37 CM/trap
